Measurements: patent US20100209960A1, “METHOD FOR MEASURING MITOCHONDRIAL MEMBRANE POTENTIAL IN VERTEBRATE CELLS” (MERCK SHARP & DOHME CORP., priority 2007, published 2010)

How the values were obtained:
[1] = system: mitochondrial membrane potential in CHO—K1 cells; experiment: cells; assay type: cell-based; conditions: for EC50: Cricetulus griseus, read-out: EC50 (decrease of mitochondrial membrane potential)
Procedure: 24 hours before assay, CHO—K1 cells were seeded in a 384 well plate at 75,000 cells per well in 50 μl growth medium (Iscove's Modified Dulbecco's Medium Invitrogen, 12440-046, 10% Fetal Bovine Serum (Invitrogen, 26140-095), 1× HT Supplement (Invitrogen, 11067-030) 1× Penicillin-Streptomycin solution (Hyclone, SV30010) 2 mM Glutamine (Hyclone, SH30034.01). Cells were then incubated overnight at 37° C., 5% carbon dioxide. When commencing the assay, 50 μl of assay buffer (50 mM Hepes, pH 7.4 150 mM KCL, 1600 mM NaCl, 25 mM D-(+)-glucose) was added to cells. […] 10 μl of 9 μM fluorescent dye TMRM (in 10% DMSO) was added and cells are incubated for 20 minutes at room temperature. 10 μl of 16 mM Brilliant Black BN prepared in D-PBS was added to yield a 1.6 mM final concentration of Brilliant Black BN. The fluorescence was immediately read on a Molecular Devices Analyst HT fluorescent plate reader, using an excitation wavelength of 530 nm and measuring the emission at 580 nm.
24 hours before assay, CHO—K1 cells were seeded in a 384 well plate at 75,000 cells per well in 50 μl growth medium (Iscove's Modified Dulbecco's Medium, lnvitrogen, 12440-046, 10% Fetal Bovine Serum (Invitrogen, 26140-095), 1× HT Supplement (Invitrogen, 11067-030) 1× Penicillin-Streptomycin solution (Hyclone, SV30010) 2 mM Glutamine (Hyclone, SH30034.01). Cells were then incubated overnight at 37° C., 5% carbon dioxide. When commencing the assay, 50 μl of assay buffer (50 mM Hepes, pH 7.4 150 mM KCL, 1600 mM NaCl, 25 mM D-(+)-glucose) was added to cells. 1 μl of the various amounts of the cation ionophore, H+—K+ antiporter, nigericin, was added and the cells are then incubated for 30 minutes at 37° C., 5% carbon dioxide. 10 μl of 9 μM fluorescent dye TMRM (in 10% DMSO) was added and cells are incubated for 20 minutes at room temperature. 10 μl of 16 mM Brilliant Black BN prepared in D-PBS was added yield a 1.6 mM final concentration of Brilliant Black BN. The fluorescence was immediately read on a Molecular Devices Analyst HT fluorescent plate reader, using an excitation wavelength of 530 nm and measuring the emission at 580 nm.

[2] = system: mitochondrial membrane potential in CHO—K1 cells; experiment: Homogeneous TMRM/Brilliant Black BN mitochondrial membrane potential assay, 1536 well plate; assay type: cell-based; conditions: Cricetulus griseus, 0.5 h, 30 minutes incubation, TMRM fluorescence, read-out: EC50 (decrease of mitochondrial membrane potential)
Procedure: 24 hours before assay, CHO—K1 cells were seeded in a 1536 well plate at 10,000 cells per well in 4 μl growth medium (Iscove's Modified Dulbecco's Medium Invitrogen, 12440-046, 10% Fetal Bovine Serum (Invitrogen, 26140-095), 1×HT Supplement (Invitrogen, 11067-030) 1× Penicillin-Streptomycin solution (Hyclone, SV30010) 2 mM Glutamine (Hyclone, SH30034.01). Cells were then incubated overnight at 37° C., 5% carbon dioxide. When commencing the assay, 4 μl of assay buffer (50 mM Hepes, pH 7.4 150 mM KCL, 1600 mM NaCl, 25 mM D-(+)-glucose) was added to cells. 80 nl of various amounts of the mitochondrial uncoupling compound, CCCP, was added and the cells were then incubated for 30 minutes at 37° C., 5% carbon dioxide. 0.8 μl of 6 μM fluorescent dye TMRM (in 20% DMSO) was added and cells were incubated for 20 minutes at room temperature. 0.8 μl of 16 mM Brilliant Black BN prepared in D-PBS was added yield a 1.6 mM final concentration of Brilliant Black BN. The fluorescence was immediately read on a Molecular Devices Tetra fluorescent plate reader, using an excitation wavelength of 530 nm and measuring the emission at 580 nm while employing a custom filter (Omega Optical) whose transmission wavelength was 580 nm±10 nm.

`N#CC(C#N)=NNc1cccc(Cl)c1` [CCCP, carbonylcyanide m-chlorophenylhydrazone] showed an EC50 ([1]; 0.5 h, adherent CHO—K1 cells, 384 well plate, 30 minutes incubation, TMRM fluorescence) of 250 nM and an EC50 [2] of 180 nM.

For `CO[C@@H]1C[C@@H](C[C@H]2CC[C@H](C)[C@H]([C@@H](C)C(=O)O)O2)O[C@]2(O[C@](C)([C@H]3CC[C@@](C)([C@@H]4O[C@@H]([C@H]5O[C@@](O)(CO)[C@H](C)C[C@@H]5C)C[C@@H]4C)O3)C[C@H]2C)[C@@H]1C` [Nigericin, nigericin], the “Effect at greater levels of nigericin” value [1] was “toxicity and membrane depolarization” and the “Effect on mitochondrial membrane potential” value ([1]; adherent CHO—K1 cells, 384 well plate, increasing amounts of nigericin) was “caused hyperpolarization of the mitochondrial membrane”.

Compound `O=[N+]([O-])c1ccc(O)c([N+](=O)[O-])c1` [2,4-DNP, 2,4-dinitrophenol] has an EC50 ([1]; CHO-K1, 0.5 h) of 5000 nM.
